Experiments:
[1] = Non-enzymatic decomposition of the glycinate ester prodrug at physiological pH; type: physicochemical; conditions: pH of 7 or above
Description: 4 arose by a competitive intermolecular reaction to the lactam intermediate and reacted to release both 5 and 6.

[2] = molecular target: human serum albumin (HSA) (Homo sapiens, UniProt P02768); conditions: cited from earlier work
[3] = Stability of free and liposomal prodrug in whole blood
[4] = human blood, cited from earlier work
[5] = molecular target: T1, topoisomerase I cleavage complexes (Homo sapiens, UniProt P11387); conditions: cell-free; vs camptothecin or SN-38; cited from earlier work
T1 sequence (P11387 1-765): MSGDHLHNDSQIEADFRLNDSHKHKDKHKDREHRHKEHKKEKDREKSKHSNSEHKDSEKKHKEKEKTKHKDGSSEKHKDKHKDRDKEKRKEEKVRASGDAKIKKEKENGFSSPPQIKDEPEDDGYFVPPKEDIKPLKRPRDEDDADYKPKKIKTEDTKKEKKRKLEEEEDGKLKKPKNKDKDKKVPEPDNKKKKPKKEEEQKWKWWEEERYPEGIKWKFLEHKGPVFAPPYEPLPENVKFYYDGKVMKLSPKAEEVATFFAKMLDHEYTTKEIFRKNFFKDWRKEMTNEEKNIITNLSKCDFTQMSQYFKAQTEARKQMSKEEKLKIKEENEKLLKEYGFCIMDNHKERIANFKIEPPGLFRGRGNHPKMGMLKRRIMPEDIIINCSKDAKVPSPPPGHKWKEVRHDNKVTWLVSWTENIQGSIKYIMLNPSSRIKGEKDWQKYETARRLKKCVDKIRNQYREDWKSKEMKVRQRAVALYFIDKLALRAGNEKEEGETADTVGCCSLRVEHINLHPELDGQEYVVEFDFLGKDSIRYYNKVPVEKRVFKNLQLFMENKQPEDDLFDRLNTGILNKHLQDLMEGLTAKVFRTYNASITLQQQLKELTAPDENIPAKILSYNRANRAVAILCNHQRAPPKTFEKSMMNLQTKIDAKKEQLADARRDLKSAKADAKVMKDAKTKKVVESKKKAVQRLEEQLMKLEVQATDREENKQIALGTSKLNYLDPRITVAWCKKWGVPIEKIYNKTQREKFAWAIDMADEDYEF

human glioma = conditions: murine model; cited from earlier work

Sequence of human serum albumin (HSA) (P02768 25-609): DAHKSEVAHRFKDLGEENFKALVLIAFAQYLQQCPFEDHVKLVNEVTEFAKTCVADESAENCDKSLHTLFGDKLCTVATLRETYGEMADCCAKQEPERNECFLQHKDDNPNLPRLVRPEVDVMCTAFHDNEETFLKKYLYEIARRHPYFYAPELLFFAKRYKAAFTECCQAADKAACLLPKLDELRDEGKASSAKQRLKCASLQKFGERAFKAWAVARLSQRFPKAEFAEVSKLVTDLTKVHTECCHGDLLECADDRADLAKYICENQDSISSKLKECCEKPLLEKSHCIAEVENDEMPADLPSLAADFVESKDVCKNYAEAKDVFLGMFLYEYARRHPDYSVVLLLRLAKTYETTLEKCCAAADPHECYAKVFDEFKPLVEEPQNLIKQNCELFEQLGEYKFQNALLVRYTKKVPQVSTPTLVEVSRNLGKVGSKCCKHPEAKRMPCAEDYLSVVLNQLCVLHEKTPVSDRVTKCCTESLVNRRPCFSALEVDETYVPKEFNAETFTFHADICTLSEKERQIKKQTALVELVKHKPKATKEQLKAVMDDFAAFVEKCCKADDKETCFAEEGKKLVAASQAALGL

Compound: CC[C@@]1(OC(=O)CN)C(=O)OCc2c1cc1n(c2=O)Cc2c-1nc1ccc(O)cc1c2[Si](C)(C)C(C)(C)C [DB-67 20(S)-glycinate ester]
- decomposition at physiological pH [1]: rapid and convenient non-enzymatic decomposition process that releases active DB-67

Compound: CCc1c2c(nc3ccc(O)cc13)-c1cc3c(c(=O)n1C2)COC(=O)[C@]3(O)CC [SN-38]
- association of carboxylate form with the high affinity carboxylate binding pocket on HSA [2]: block SN-38 from associating

Compound: Camptothecin
- affinity of lactone form for HSA ([2]; lactone form): moderate affinity

Compound: DB-67 4-aminobutanoate ester
- decomposition of free prodrug [3]: extensive

Compound: CC[C@@]1(O)C(=O)OCc2c1cc1n(c2=O)Cc2c-1nc1ccc(O)cc1c2[Si](C)(C)C(C)(C)C [DB-67, 7-t-butyldimethylsilyl-10-hydroxycamptothecin]
- association of carboxylate form with the high affinity carboxylate binding pocket on HSA [2]: blocks the associations
- % lactone at equilibrium [4]: 30%
- t1/2 ([4]; lactone hydrolysis): 130 min
- stability of topoisomerase I cleavage complexes [5]: more stable topoisomerase I cleavage complexes than camptothecin or SN-38
- activity against human glioma (human glioma): display activity against human glioma

Reference: US7064206B1 (University of Kentucky Research Foundation, priority 2003, dated 2006)
